19 compounds from PubChem BioAssay AID256 (DTP/NCI, 2004) can be followed below.

Several values for one entry are separate records, joined by “and”; a condition that tells them apart may be missing. Identical values can stand only once. Inconclusive results and toxic doses are left out.

The subject of this assay is CD2F1 mice, L1210 leukemia ip, survival T/C. Description: NCI In Vivo Anticancer Drug Screen. Data for tumor model L1210 Leukemia (intraperitoneal) in CD2F1 (CDF1) mice. To be noted: higher = longer survival. An outline of the steps: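 Activity against a transplanted murine tumor was judged by comparing the compound group with a vehicle group. The outcome in the treated animals was divided by that in the controls.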

Setting [1] is: endpoint: mean survival time, dose: 100.0 mg/kg/injection, schedule: Q04DX003 (ip), vehicle: saline with Tween-80.
The mark [2] stands for this setting: endpoint: mean survival time, dose: 200.0 mg/kg/injection, schedule: Q04DX003 (ip), vehicle: saline with Tween-80.
Setting [3] is: endpoint: mean survival time, dose: 400.0 mg/kg/injection, schedule: Q04DX003 (ip), vehicle: saline with Tween-80.
Setting [4] is: endpoint: mean survival time, dose: 100.0 mg/kg/injection, schedule: Q01DX009 (ip), vehicle: saline with Tween-80.
[5] abbreviates: endpoint: mean survival time, dose: 200.0 mg/kg/injection, schedule: Q01DX009 (ip), vehicle: saline with Tween-80.
Where [6] appears, read: endpoint: mean survival time, dose: 400.0 mg/kg/injection, schedule: Q01DX009 (ip), vehicle: saline with Tween-80.
The mark [7] stands for this setting: endpoint: mean survival time, dose: 100.0 mg/kg/injection, schedule: Q04DX003 (ip), vehicle: saline.
[8] abbreviates: endpoint: mean survival time, dose: 200.0 mg/kg/injection, schedule: Q04DX003 (ip), vehicle: saline.
[9] abbreviates: endpoint: mean survival time, dose: 400.0 mg/kg/injection, schedule: Q04DX003 (ip), vehicle: saline.
Where [10] appears, read: endpoint: mean survival time, dose: 100.0 mg/kg/injection, schedule: Q01DX009 (ip), vehicle: saline.
[11] abbreviates: endpoint: mean survival time, dose: 200.0 mg/kg/injection, schedule: Q01DX009 (ip), vehicle: saline.

Regarding `CNC(=O)/C=C/C1=CN2C(=O)c3ccc(C)c(O)c3NC(OC)C2C1` (stereo not drawn), the T/C was 105 % of control and 108 % of control (endpoint: mean survival time, dose: 0.01 mg/kg/injection, schedule: Q01DX009 (ip), vehicle: saline); 95 % of control (endpoint: mean survival time, dose: 0.02 mg/kg/injection, schedule: Q01DX009 (ip), vehicle: saline); 112 % of control (endpoint: mean survival time, dose: 0.03 mg/kg/injection, schedule: Q01DX009 (ip), vehicle: saline); 100 % of control and 106 % of control and 108 % of control (endpoint: mean survival time, dose: 0.05 mg/kg/injection, schedule: Q01DX009 (ip), vehicle: saline); 115 % of control and 102 % of control and 106 % of control (endpoint: mean survival time, dose: 0.1 mg/kg/injection, schedule: Q01DX009 (ip), vehicle: saline); 115 % of control and 100 % of control (endpoint: mean survival time, dose: 0.2 mg/kg/injection, schedule: Q01DX009 (ip), vehicle: saline). Moreover, under “endpoint: mean survival time, dose: 0.4 mg/kg/injection, schedule: Q01DX009 (ip), vehicle: saline”, the T/C is 112 % of control.

In the case of `COc1cc2c(cc1OC)C(CCNC(=O)CCCO)NCC2` (stereo not drawn), the T/C reads like this: (endpoint: mean survival time, dose: 100.0 mg/kg/injection, schedule: Q01DX001 (ip), vehicle: saline sonified) 97 % of control; (endpoint: mean survival time, dose: 100.0 mg/kg/injection, schedule: Q01DX009 (ip), vehicle: saline sonified) 98 % of control; (endpoint: mean survival time, dose: 200.0 mg/kg/injection, schedule: Q01DX001 (ip), vehicle: saline sonified) 100 % of control; (endpoint: mean survival time, dose: 200.0 mg/kg/injection, schedule: Q01DX009 (ip), vehicle: saline sonified) 95 % of control; (endpoint: mean survival time, dose: 400.0 mg/kg/injection, schedule: Q01DX001 (ip), vehicle: saline sonified) 100 % of control; (endpoint: mean survival time, dose: 400.0 mg/kg/injection, schedule: Q01DX009 (ip), vehicle: saline sonified) 91 % of control.

For the compound `O=S1(=O)CC(O)C(Br)C1` (stereo not drawn), the T/C under setting [1] is 103 % of control, the T/C under setting [2] is 101 % of control and the T/C under setting [3] was 92 % of control.

`COc1cccc(/C=N/NC(=O)CNC(=O)Nc2cccc(Cl)c2)c1OC`: the T/C by setting is: under setting [4], 101 % of control; under setting [5], 109 % of control; under setting [6], 103 % of control.

For the compound `COc1cccc(CO)c1Oc1ccc(C)cc1`, the T/C was 102 % of control (endpoint: mean survival time, dose: 100.0 mg/kg/injection, schedule: Q01DX001 (ip), vehicle: saline); 89 % of control under setting [7]; 105 % of control (endpoint: mean survival time, dose: 200.0 mg/kg/injection, schedule: Q01DX001 (ip), vehicle: saline); 89 % of control under setting [8]; 100 % of control (endpoint: mean survival time, dose: 400.0 mg/kg/injection, schedule: Q01DX001 (ip), vehicle: saline); 89 % of control under setting [9].

For `COc1cc2cc3cc4cc(OC)c(OC)cc4c(C)[n+]3cc2cc1OC` (tested in a mixture with another compound), the T/C is 109 % of control (endpoint: mean survival time, dose: 12.5 mg/kg/injection, schedule: Q01DX009 (ip), vehicle: suspension in saline); 110 % of control (endpoint: mean survival time, dose: 25.0 mg/kg/injection, schedule: Q01DX009 (ip), vehicle: suspension in saline); 114 % of control (endpoint: mean survival time, dose: 50.0 mg/kg/injection, schedule: Q01DX009 (ip), vehicle: suspension in saline); 107 % of control (endpoint: mean survival time, dose: 100.0 mg/kg/injection, schedule: Q01DX009 (ip), vehicle: suspension in saline); 110 % of control (endpoint: mean survival time, dose: 200.0 mg/kg/injection, schedule: Q01DX009 (ip), vehicle: suspension in saline).

On to `CC(=O)CC(=O)Nc1cc(Cl)c(NC(=O)CC(C)=O)cc1Cl`, for which the T/C is, setting by setting: (endpoint: mean survival time, dose: 44.0 mg/kg/injection, schedule: Q04DX003 (ip), vehicle: saline with Tween-80) 104 % of control; (endpoint: mean survival time, dose: 66.0 mg/kg/injection, schedule: Q04DX003 (ip), vehicle: saline with Tween-80) 96 % of control; under setting [4], 97 % of control; under setting [1], 98 % of control; (endpoint: mean survival time, dose: 150.0 mg/kg/injection, schedule: Q04DX003 (ip), vehicle: saline with Tween-80) 100 % of control; under setting [5], 97 % of control. Besides, the T/C under setting [6] is 97 % of control.

`C=C(C)C1CCC2(COS(=O)(=O)c3ccc(C)cc3)CCC3(C)C(CCC4C5(C)CCC(OC6CCCCO6)C(C)(C)C5CCC43C)C12` (stereo not drawn): the T/C runs as follows: (endpoint: mean survival time, dose: 25.0 mg/kg/injection, schedule: Q04DX002 (ip), vehicle: saline with Tween-80) 103 % of control; (endpoint: mean survival time, dose: 50.0 mg/kg/injection, schedule: Q04DX002 (ip), vehicle: saline with Tween-80) 92 % of control.

As for `Cn1c(=O)c2[nH]c(-c3ccc4c(c3)OCO4)nc2n(C)c1=O`, the T/C runs as follows: under setting [1], 89 % of control; under setting [2], 92 % of control; under setting [3], 88 % of control.

`C=C(Cl)CSCCS`: the T/C runs as follows: (endpoint: mean survival time, dose: 50.0 mg/kg/injection, schedule: Q01DX009 (ip), vehicle: acetone) 101 % of control; (endpoint: mean survival time, dose: 100.0 mg/kg/injection, schedule: Q01DX009 (ip), vehicle: acetone) 103 % of control.

As to `Nc1cc(S(=O)(=O)O)cc2ccc(S(=O)(=O)O)cc12`, the T/C was 106 % of control under setting [10]; 96 % of control under setting [7]; 95 % of control under setting [11]; 92 % of control under setting [8]; 92 % of control (endpoint: mean survival time, dose: 400.0 mg/kg/injection, schedule: Q01DX009 (ip), vehicle: saline); 117 % of control under setting [9].

Take `O=C(COc1ccc(Cl)c(Cl)c1)NCCc1cc[n+](Cc2ccc(Cl)cc2S(=O)(=O)F)cc1`: the T/C reads like this: (endpoint: mean survival time, dose: 100.0 mg/kg/injection, schedule: Q01DX001 (ip), vehicle: saline with Tween-80) 89 % of control; (endpoint: mean survival time, dose: 200.0 mg/kg/injection, schedule: Q01DX001 (ip), vehicle: saline with Tween-80) 89 % of control.

Consider `CCC1(O)C(=O)OCc2c1cc1n(c2=O)Cc2cc3cc(O)c(O)cc3nc2-1` (stereo not drawn), for which the T/C runs as follows: (endpoint: median survival time, dose: 10.0 mg/kg/injection, schedule: Q04DX002 (ip), vehicle: saline with Tween-80) 153 % of control; (endpoint: median survival time, dose: 40.0 mg/kg/injection, schedule: Q04DX002 (ip), vehicle: saline with Tween-80) 157 % of control; (endpoint: median survival time, dose: 80.0 mg/kg/injection, schedule: Q04DX002 (ip), vehicle: saline with Tween-80) 173 % of control.

In the case of `CC(C)C1CCC2=C(CCC3C(C)(C(=O)O)CCCC23C)C1` (stereo not drawn), the T/C under setting [1] is 95 % of control, the T/C under setting [2] was 88 % of control and the T/C under setting [3] is 89 % of control.

With `Cc1cc(SCC(=O)c2ccc(Br)cc2)cc(C)[o+]1`, the T/C by setting is: (endpoint: mean survival time, dose: 6.25 mg/kg/injection, schedule: Q01DX009 (ip), vehicle: saline) 96 % of control and 104 % of control; (endpoint: mean survival time, dose: 12.5 mg/kg/injection, schedule: Q01DX009 (ip), vehicle: saline) 102 % of control and 108 % of control; (endpoint: mean survival time, dose: 25.0 mg/kg/injection, schedule: Q01DX009 (ip), vehicle: saline) 96 % of control and 108 % of control; (endpoint: mean survival time, dose: 50.0 mg/kg/injection, schedule: Q01DX009 (ip), vehicle: saline) 92 % of control and 96 % of control; under setting [10], 102 % of control; under setting [11], 86 % of control.

For `Cc1nnc(C(N)=O)c(=O)[nH]1`, the T/C runs as follows: (endpoint: mean survival time, dose: 100.0 mg/kg/injection, schedule: Q01DX001 (ip), vehicle: Klucel (hydroxypropylcellulose) (HPC)) 102 % of control; (endpoint: mean survival time, dose: 200.0 mg/kg/injection, schedule: Q01DX001 (ip), vehicle: Klucel (hydroxypropylcellulose) (HPC)) 98 % of control; (endpoint: mean survival time, dose: 400.0 mg/kg/injection, schedule: Q01DX001 (ip), vehicle: Klucel (hydroxypropylcellulose) (HPC)) 100 % of control.

Take `O=C(CCN1CC1)Nc1cccc(NC(=O)CCN2CC2)c1`: the T/C was 118 % of control (endpoint: mean survival time, dose: 2.5 mg/kg/injection, schedule: Q01DX009 (ip), vehicle: Klucel (hydroxypropylcellulose) (HPC)); 112 % of control (endpoint: mean survival time, dose: 4.0 mg/kg/injection, schedule: Q01DX009 (ip), vehicle: Klucel (hydroxypropylcellulose) (HPC)); 156 % of control and 165 % of control (endpoint: mean survival time, dose: 10.0 mg/kg/injection, schedule: Q01DX009 (ip), vehicle: Klucel (hydroxypropylcellulose) (HPC)); 108 % of control (endpoint: mean survival time, dose: 15.0 mg/kg/injection, schedule: Q01DX009 (ip), vehicle: Klucel (hydroxypropylcellulose) (HPC)); 96 % of control and 104 % of control (endpoint: mean survival time, dose: 20.0 mg/kg/injection, schedule: Q01DX009 (ip), vehicle: Klucel (hydroxypropylcellulose) (HPC)).

With `O=C(CC(Br)C(=O)c1ccccc1)c1ccccc1` (stereo not drawn), the T/C runs as follows: (endpoint: mean survival time, dose: 100.0 mg/kg/injection, schedule: Q04DX003 (ip), vehicle: saline sonified) 92 % of control; (endpoint: mean survival time, dose: 200.0 mg/kg/injection, schedule: Q04DX003 (ip), vehicle: saline sonified) 94 % of control; (endpoint: mean survival time, dose: 400.0 mg/kg/injection, schedule: Q04DX003 (ip), vehicle: saline sonified) 97 % of control.

In the case of `CC1(C)C(=O)CCC2(C)C(OC(=O)c3ccc(C(=O)O)cc3)CCCC12` (stereo not drawn), the T/C is 96 % of control under setting [1], 93 % of control under setting [2] and 93 % of control under setting [3].
